These are literature values, as cited in patent US20190027771A1, “ACID GAS REGENERABLE BATTERY” (Commonwealth Scientific and Industrial Research Organisation, priority 2015, published 2019).

For one data set the following is noted: Table 2.
As to 1,3 Diaminopropane, the pKa (commonly the negative logarithm of the acid dissociation constant) was 10.4.

As to `NCCCn1ccnc1` [1-(3-aminopropyl)-imidazole, 1-(3-aminopropyl)imidazole], the pKa is recorded as 9.6.

With `NCCOCCO` [2-(2-Aminoethoxy)-ethanol, 2-(2-Aminoethoxy)ethanol], the pKa is 9.3.

Turning to `CC1CCNCC1` [4-methylpiperidine], the pKa is recorded as 11.27.

Take `NCCCCCO` [5-Amino-1-pentanol]: the pKa is on record as 10.5.

As to `CCCCCN` [Amylamine], the pKa was 10.81.

Take `N[C@@H](CCC(=O)O)C(=O)O` [Glutamic acid]: the pKa is 9.47.

Consider `C[C@H](N)C(=O)O` [L-Alanine], for which the pKa is on record as 9.69.

Regarding `C[C@@H](O)[C@H](N)C(=O)O` [L-Threonine], the pKa is 9.1.

In the case of `CNCC(=O)O` [Sarcosine], the pKa is recorded as 10.05.

Regarding `NCCS(=O)(=O)O` [Taurine], the pKa is listed as […].

As for `CC(O)CNCC(C)O` (stereo not drawn) [bis(2-hydroxypropyl)-amine, bis(2-hydroxypropyl)amine], the pKa is reported as 9.1.

In the case of `NCCCCCCN` [hexamethylenediamine], the pKa was 10.9.

Take `NCc1cccc(CN)c1` [m-Xylylenediamine]: the pKa is listed as 9.2.

Regarding Pyrrolidine, the pKa is listed as 11.35.

The data set is the same for the next values; noted with them: Table 3.
With 1,3 Diaminopropane, the pKa is reported as 10.4.

Consider `NCCCCCO` [5-Amino-1-pentanol], for which the pKa is given as 10.5.

In the case of `NCCCCCCN` [hexamethylenediamine], the pKa was 10.9.

For another data set the following is noted: reduction of the free metal ion to the metal.
As for `[Ag+]` [Ag^+], the “Cathode reaction potential E” value is recorded as “E = +0.80 V”.

With `[Cd+2]` [Cd^2+], the “Cathode reaction potential E” value is recorded as “E = −0.403 V”.

With `[Co+2]` [Co^2+], the “Cathode reaction potential E” value is given as “E = −0.277 V”.

In the case of `[Cu+2]` [Cu^2+], the “Cathode reaction potential E” value is “E = +0.34 V”.

On to `[Hg+2]` [Hg^2+], for which the “Cathode reaction potential E” value is reported as “E = +0.8535 V”.

`[Ni+2]` [Ni^2+]: the “Cathode reaction potential E” value was “E = −0.257 V”.

On to `[Pd+2]` [Pd^2+], for which the “Cathode reaction potential E” value is given as “E = +0.915 V”.

In the case of `[Pt+2]` [Pt^2+], the “Cathode reaction potential E” value is recorded as “E = +1.188 V”.

In the case of `[Zn+2]` [Zn^2+], the “Cathode reaction potential E” value was “E = −0.763 V”.

The same data set, now with this note: reduction of the metal-ammine complex to the metal and NH3.
Turning to `N.N.[Ag+]` [[Ag(NH3)2]^+], the “Anode reaction potential E” value was “E = +0.37 V”.

For the compound `N.N.N.N.[Cd+2]` [[Cd(NH3)4]^2+], the “Anode reaction potential E” value is listed as “E = −0.622 V”.

For the compound `N.N.N.N.[Co+2]` [[Co(NH3)4]^2+], the “Anode reaction potential E” value is “E = −0.422 V”.

As to `N.N.N.N.[Cu+2]` [[Cu(NH3)4]^2+], the “Anode reaction potential E” value is recorded as “E = −0.04 V”.

As for `N.N.N.N.[Hg+2]` [[Hg(NH3)4]^2+], the “Anode reaction potential E” value is “E = +0.283 V”.

Take `N.N.N.N.N.N.[Ni+2]` [[Ni(NH3)6]^2+]: the “Anode reaction potential E” value is given as “E = −0.49 V”.

`N.N.N.N.[Pd+2]` [[Pd(NH3)4]^2+]: the “Anode reaction potential E” value is recorded as “E = 0.0 V”.

On to `N.N.N.N.N.N.[Pt+2]` [[Pt(NH3)6]^2+], for which the “Anode reaction potential E” value is given as “E = +0.144 V”.

Regarding `N.N.N.N.[Zn+2]` [[Zn(NH3)4]^2+], the “Anode reaction potential E” value is “E = −1.04 V”.
